In paper PMC11200585, “Prospects for Prostate Cancer Chemotherapy: Cytotoxic Evaluation and Mechanistic Insights of Quinolinequinones with ADME/PK Profile” (Biomedicines, 2024):

Columns and labels:
Assay type in all cases: cell-based, human
[1] = test system: CCRF-CEM; assay: NCI-60 one-dose screen (leukemia); conditions: 10 µM single dose
Description: (§1) The obtained quinolinequinones were submitted to NCI, Bethesda, USA, and, as per standard protocol of NCI, all compounds were evaluated for their antiproliferative activity at single-dose assay (10 µM concentration in DMSO) on a panel of 60 cancer cell lines derived from leukemia, non-small-cell lung, colon, CNS, melanoma, ovarian, renal, prostate, and breast, as per protocol. Tested compounds were added to the microtiter culture plates followed by incubation for 48 h at 37 °C. Sulforhodamine B (SRB), a protein-binding dye, is used for endpoint determination. The percent of the growth of the treated cells was determined in comparison to the untreated control cells and the results of each tested compound were reported. Data from one-dose experiments pertain to the percentage growth at 10 μM [16, 17, 18].

[2] = test system: HL-60(TB); assay: NCI-60 one-dose screen (leukemia); conditions: 10 µM single dose, 48 h
Description: as §1

[3] = test system: K-562; assay: NCI-60 one-dose screen (leukemia); conditions: 10 µM single dose, 48 h
Description: as §1

[4] = test system: MOLT-4; assay: NCI-60 one-dose screen (leukemia); conditions: 10 µM single dose, 48 h
Description: as §1

[5] = test system: RPMI-8226; assay: NCI-60 one-dose screen (leukemia); conditions: 10 µM single dose, 48 h
Description: as §1

[6] = test system: SR; assay: NCI-60 one-dose screen (leukemia); conditions: 10 µM single dose, 48 h
Description: as §1

[7] = test system: COLO 205; assay: NCI-60 one-dose screen (colon cancer); conditions: 10 µM single dose, 48 h
Description: as §1

[8] = test system: HCC-2998; assay: NCI-60 one-dose screen (colon cancer); conditions: 10 µM single dose, 48 h
Description: as §1

[9] = test system: HCT-116; assay: NCI-60 one-dose screen (colon cancer); conditions: 10 µM single dose, 48 h
Description: as §1

[10] = test system: HCT-15; assay: NCI-60 one-dose screen (colon cancer); conditions: 10 µM single dose, 48 h
Description: as §1

[11] = test system: HT29; assay: NCI-60 one-dose screen (colon cancer)
Description: as §1

[12] = test system: KM12; assay: NCI-60 one-dose screen (colon cancer); conditions: 10 µM single dose, 48 h
Description: as §1

[13] = test system: SW-620; assay: NCI-60 one-dose screen (colon cancer); conditions: 10 µM single dose, 48 h
Description: as §1

[14] = test system: LOX IMVI; assay: NCI-60 one-dose screen (melanoma); conditions: 10 µM single dose, 48 h
Description: as §1

[15] = test system: MALME-3M; assay: NCI-60 one-dose screen (melanoma); conditions: 10 µM single dose, 48 h
Description: as §1

[16] = test system: MDA-MB-435; assay: NCI-60 one-dose screen (melanoma); conditions: 10 µM single dose, 48 h
Description: as §1

[17] = test system: SK-MEL-28; assay: NCI-60 one-dose screen (melanoma); conditions: 10 µM single dose
Description: as §1

[18] = test system: SK-MEL-2; assay: NCI-60 one-dose screen (melanoma); conditions: 10 µM single dose, 48 h
Description: as §1

[19] = test system: SK-MEL-5; assay: NCI-60 one-dose screen (melanoma); conditions: 10 µM single dose, 48 h
Description: as §1

[20] = test system: UACC-257; assay: NCI-60 one-dose screen (melanoma); conditions: 10 µM single dose, 48 h
Description: as §1

[21] = test system: UACC-62; assay: NCI-60 one-dose screen (melanoma); conditions: 10 µM single dose, 48 h
Description: as §1

[22] = test system: CCRF-CEM; assay: NCI-60 five-dose assay (leukemia); conditions: 48 h, SRB
[23] = test system: HL-60(TB); assay: NCI-60 five-dose assay (leukemia); conditions: 48 h, SRB
[24] = test system: RPMI-8226; assay: NCI-60 five-dose assay (leukemia); conditions: 48 h, SRB
[25] = test system: NCI-H226; assay: NCI-60 five-dose assay (non-small cell lung cancer); conditions: 48 h, SRB
[26] = test system: NCI-H322M; assay: as above; conditions: 48 h, SRB
[27] = test system: COLO 205; assay: NCI-60 five-dose assay (colon cancer); conditions: 48 h, SRB
[28] = test system: SF-295; assay: NCI-60 five-dose assay (CNS cancer); conditions: 48 h, SRB
[29] = test system: LOX IMVI; assay: NCI-60 five-dose assay (melanoma); conditions: 48 h, SRB
[30] = test system: MDA-MB-435; assay: NCI-60 five-dose assay (melanoma); conditions: 48 h, SRB
[31] = test system: OVCAR-3; assay: NCI-60 five-dose assay (ovarian cancer); conditions: 48 h, SRB
[32] = test system: A498; assay: NCI-60 five-dose assay (renal cancer); conditions: 48 h, SRB
[33] = test system: CAKI-1; assay: NCI-60 five-dose assay (renal cancer); conditions: 48 h, SRB
[34] = test system: RXF 393; assay: NCI-60 five-dose assay (renal cancer); conditions: 48 h, SRB
[35] = test system: PC-3; assay: NCI-60 five-dose assay (prostate cancer); conditions: 48 h, SRB
[36] = test system: DU-145; assay: NCI-60 five-dose assay (prostate cancer); conditions: 48 h, SRB
[37] = test system: BT-549; assay: NCI-60 five-dose assay (breast cancer); conditions: 48 h, SRB
[38] = test system: MDA-MB-468; assay: NCI-60 five-dose assay (breast cancer); conditions: 48 h, SRB
[39] = Homo sapiens, read-out: LC50 (the source's name)

## CCOc1ccc(NC2=C(Cl)C(=O)c3nc(C)ccc3C2=O)cc1 [AQQ3]
[1]; 48 h
  GP (growth percentage): 0.63%
[1]; Homo sapiens
  inhibition at 10 µM: 99.4%
[2]
  GP (growth percentage): −46.39%
[3]
  GP (growth percentage): −4.17%
[4]
  GP (growth percentage): −46.73%
[5]
  GP (growth percentage): −19.35%
[6]
  GP (growth percentage): −27.42%
[7]
  GP (growth percentage): 98.22%
[8]
  GP (growth percentage): −55.70%
[9]
  GP (growth percentage): −83.64%
[10]
  GP (growth percentage): −83.19%
[11]; 10 µM single dose, 48 h
  GP (growth percentage): 15.90%
[11]; Homo sapiens, HT-29, 10 µM single dose
  inhibition at 10 µM: 84.1%
[12]
  GP (growth percentage): 57.40%
[13]
  GP (growth percentage): −55.33%
[14]
  GP (growth percentage): −76.37%
[15]
  GP (growth percentage): −90.58%
[16]
  GP (growth percentage): −83.74%
[17]; 48 h
  GP (growth percentage): 8.93%
[17]; Homo sapiens
  inhibition at 10 µM: 91.1%
[18]
  GP (growth percentage): −49.77%
[19]
  GP (growth percentage): −98.64%
[20]
  GP (growth percentage): −89.19%
[21]
  GP (growth percentage): −43.31%
[22]
  TGI: >100000 nM
[22]; Homo sapiens
  GI50: 2110 nM
  LC50 (concentration killing 50% of cells): > 100000 nM
[23]
  TGI: 4180 nM
[23]; Homo sapiens
  GI50: 1470 nM
[23]; [39]
  CC50: > 100000 nM
[24]
  TGI: 5330 nM
[24]; Homo sapiens
  GI50: 1670 nM
[24]; [39]
  CC50: > 100000 nM
[25]
  TGI: 4520 nM
[25]; Homo sapiens
  GI50: 1840 nM
  LC50: > 100000 nM
[26]
  TGI: 3740 nM
[26]; Homo sapiens
  GI50: 1680 nM
[26]; [39]
  CC50: 8290 nM
[27]
  TGI: 3640 nM
[27]; Homo sapiens
  GI50: 1860 nM
[27]; [39]
  CC50: 7120 nM
[28]
  TGI: 3430 nM
[28]; Homo sapiens
  GI50: 1860 nM
  LC50 (50% lethal concentration): 6300 nM
[29]
  TGI: 2330 nM
[29]; Homo sapiens
  GI50: 1060 nM
  LC50 (concentration killing 50% of cells): 5140 nM
[30]
  TGI: 1530 nM
[30]; Homo sapiens
  GI50: 442 nM
[30]; [39]
  CC50: 3990 nM
[31]
  TGI: 2190 nM
[31]; Homo sapiens
  GI50: 962 nM
[31]; [39]
  CC50: 4870 nM
[32]
  TGI: 5520 nM
[32]; Homo sapiens
  GI50: 1560 nM
  LC50: 24400 nM
[33]
  TGI: 2970 nM
[33]; Homo sapiens
  GI50: 1600 nM
  LC50 (lethal concentration, 50% net cell kill): 5510 nM
[34]
  TGI: 2960 nM
[34]; Homo sapiens
  GI50: 1570 nM
  LC50: 5610 nM
[35]
  TGI: 2770 nM
[35]; Homo sapiens
  GI50: 1290 nM
[35]; [39]
  CC50: 5930 nM
[36]
  TGI: 3130 nM
[36]; Homo sapiens
  GI50: 1720 nM
[36]; [39]
  CC50: 5680 nM
[37]
  TGI: 2800 nM
[37]; Homo sapiens
  GI50: 1430 nM
  LC50 (concentration giving 50% net cell kill): 5490 nM
[38]
  TGI: 2920 nM
[38]; Homo sapiens
  GI50: 1490 nM
  LC50: 5750 nM
